Results taken from PubChem BioAssay AID1963851 (Molecular Pharmacology Branch, DTP, NCI, 2024).

System: 188146-221-R-J1-PDC complex spheroid viability
Test: Anticancer human tumor 188146-221-R-J1-PDC patient-derived colon adenocarcinoma cell line growth inhibition [POLQ]
Conditions: for IC50: curve of first compound; for viability, T/C: stronger effect = lower value
In short: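 Patient-derived tumour cells were co-cultured with HUVEC and mesenchymal stem cells as multicellular spheroids at 37 °C. They were treated with POLQ inhibitors (novobiocin, ART-558, RP6685) alone or combined with other agents. Top concentrations were at or near clinical Cmax (otherwise 10 microM; SN-38 at 1 microM), decreasing in half-log steps.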

[1] = second compound 0.0316 µM, first compound 0.0316 µM
[2] = second compound 0.0316 µM, first compound 0.1 µM
[3] = second compound 0.0316 µM, first compound 0.316 µM
[4] = second compound 0.0316 µM, first compound 1 µM
[5] = second compound 0.0316 µM, first compound 3.16 µM
[6] = second compound 0.0316 µM, first compound 10 µM
[7] = second compound 0.1 µM, first compound 0.0316 µM
[8] = second compound 0.1 µM, first compound 0.1 µM
[9] = second compound 0.1 µM, first compound 0.316 µM
[10] = second compound 0.1 µM, first compound 1 µM
[11] = second compound 0.1 µM, first compound 3.16 µM
[12] = second compound 0.1 µM, first compound 10 µM
[13] = second compound 0.316 µM, first compound 0.0316 µM
[14] = second compound 0.316 µM, first compound 0.1 µM
[15] = second compound 0.316 µM, first compound 0.316 µM
[16] = second compound 0.316 µM, first compound 1 µM
[17] = second compound 0.316 µM, first compound 3.16 µM
[18] = second compound 0.316 µM, first compound 10 µM
[19] = second compound 1 µM, first compound 0.0316 µM
[20] = second compound 1 µM, first compound 0.1 µM
[21] = second compound 1 µM, first compound 0.316 µM
[22] = second compound 1 µM, first compound 1 µM
[23] = second compound 1 µM, first compound 3.16 µM
[24] = second compound 1 µM, first compound 10 µM
[25] = second compound 3.16 µM, first compound 0.0316 µM
[26] = second compound 3.16 µM, first compound 0.1 µM
[27] = second compound 3.16 µM, first compound 0.316 µM
[28] = second compound 3.16 µM, first compound 1 µM
[29] = second compound 3.16 µM, first compound 3.16 µM
[30] = second compound 3.16 µM, first compound 10 µM
[31] = second compound 10 µM, first compound 0.0316 µM
[32] = second compound 10 µM, first compound 0.1 µM
[33] = second compound 10 µM, first compound 0.316 µM
[34] = second compound 10 µM, first compound 1 µM
[35] = second compound 10 µM, first compound 3.16 µM
[36] = second compound 10 µM, first compound 10 µM
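Further: spheroids exposed to compounds for seven days.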
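Wherever viability, T/C is given: 100% = DMSO vehicle control viability.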

## CNCc1ccc(-c2[nH]c3cc(F)cc4c3c2CCNC4=O)cc1 + COC1C(OC(N)=O)C(O)C(Oc2ccc3c(O)c(NC(=O)c4ccc(O)c(CC=C(C)C)c4)c(=O)oc3c2C)OC1(C)C
Second compound 0.0316 µM
  IC50: > 10000 nM
Second compound 0.1 µM
  IC50: > 10000 nM
Second compound 0.316 µM
  IC50: > 10000 nM
Second compound 1 µM
  IC50: > 10000 nM
Second compound 3.16 µM
  IC50: > 10000 nM
Second compound 10 µM
  IC50: > 10000 nM
[1]
  viability, T/C: 111%
[2]
  viability, T/C: 98.3%
[3]
  viability, T/C: 109%
[4]
  viability, T/C: 102%
[5]
  viability, T/C: 103%
[6]
  viability, T/C: 96.5%
[7]
  viability, T/C: 118%
[8]
  viability, T/C: 104%
[9]
  viability, T/C: 106%
[10]
  viability, T/C: 99.6%
[11]
  viability, T/C: 102%
[12]
  viability, T/C: 117%
[13]
  viability, T/C: 106%
[14]
  viability, T/C: 101%
[15]
  viability, T/C: 102%
[16]
  viability, T/C: 111%
[17]
  viability, T/C: 112%
[18]
  viability, T/C: 104%
[19]
  viability, T/C: 108%
[20]
  viability, T/C: 110%
[21]
  viability, T/C: 106%
[22]
  viability, T/C: 105%
[23]
  viability, T/C: 99.5%
[24]
  viability, T/C: 115%
[25]
  viability, T/C: 98.1%
[26]
  viability, T/C: 99.8%
[27]
  viability, T/C: 106%
[28]
  viability, T/C: 101%
[29]
  viability, T/C: 111%
[30]
  viability, T/C: 107%
[31]
  viability, T/C: 111%
[32]
  viability, T/C: 103%
[33]
  viability, T/C: 110%
[34]
  viability, T/C: 93.2%
[35]
  viability, T/C: 117%
[36]
  viability, T/C: 121%

## COc1cccc2c1C(=O)c1c(O)c3c(c(O)c1C2=O)CC(O)(C(=O)CO)CC3OC1CC(N)C(O)C(C)O1 (centres undefined) + Nc1ccc(C#CCN(C(=O)Cc2ncc(C(F)(F)F)cc2C(F)(F)F)c2ccc(F)cc2)nn1
Second compound 0.0316 µM
  IC50: 134 nM
Second compound 0.1 µM
  IC50: 103 nM
Second compound 0.316 µM
  IC50: 68.8 nM
Second compound 1 µM
  IC50: 80.6 nM
Second compound 3.16 µM
  IC50: 57.4 nM
Second compound 10 µM
  IC50: 62.1 nM
[1]
  viability, T/C: 67.5%
[2]
  viability, T/C: 57.8%
[3]
  viability, T/C: 26.7%
[4]
  viability, T/C: 5.37%
[5]
  viability, T/C: 0.23%
[6]
  viability, T/C: 0.7%
[7]
  viability, T/C: 80.5%
[8]
  viability, T/C: 48.3%
[9]
  viability, T/C: 29.4%
[10]
  viability, T/C: 5.02%
[11]
  viability, T/C: 0.21%
[12]
  viability, T/C: 0.47%
[13]
  viability, T/C: 67.8%
[14]
  viability, T/C: 40%
[15]
  viability, T/C: 25%
[16]
  viability, T/C: 9.55%
[17]
  viability, T/C: 0.15%
[18]
  viability, T/C: 0.48%
[19]
  viability, T/C: 83.7%
[20]
  viability, T/C: 36.7%
[21]
  viability, T/C: 29.5%
[22]
  viability, T/C: 5.88%
[23]
  viability, T/C: 0.44%
[24]
  viability, T/C: 0.58%
[25]
  viability, T/C: 64.5%
[26]
  viability, T/C: 34.2%
[27]
  viability, T/C: 24.8%
[28]
  viability, T/C: 7.19%
[29]
  viability, T/C: 0.42%
[30]
  viability, T/C: 0.9%
[31]
  viability, T/C: 63.2%
[32]
  viability, T/C: 38.7%
[33]
  viability, T/C: 25.3%
[34]
  viability, T/C: 5.04%
[35]
  viability, T/C: 0.39%
[36]
  viability, T/C: 1.33%
